Drawing on ChEMBL document CHEMBL1649232 (Antimicrob Agents Chemother, 2009), this text covers Cmax and Drug uptake for 2 compounds.

Data set [1] can be described thus: Cmax in healthy human at […] parenteral dose. The data set is classed as ADME, organism-based. The following applies: in vivo.
A short description of data set [2]: Drug level in sputum of healthy human between 6 to 24 hrs postdosing. The data set is classed as ADME, tissue-based. The following applies: in vivo.

On to `CCC(CC)[C@H](NC(C)=O)[C@@H]1[C@H](O)[C@@H](C(=O)O)C[C@H]1NC(=N)N` [PERAMIVIR ANHYDROUS], for which, in data set [1], the Cmax stood at 10 µg/mL.

`CC(=O)N[C@H]1[C@H]([C@H](O)[C@H](O)CO)OC(C(=O)O)=C[C@@H]1N=C(N)N` [ZANAMIVIR] displayed a Drug uptake in data set [2] of 47 ng/mL.
